# Data: patent US8993718B2, “Methods and compositions for detecting and modulating O-glycosylation” (President and Fellows of Harvard College, priority 2007, dated 2015)
# Non-standard residues stand in square brackets, D forms with d. Primed or numbered codes have the meaning given here. No end group written: not given here. *: point of attachment. FITC = O=C1OC2(c3ccc(O)cc3Oc3cc(O)ccc32)c2ccc(NC(=S)*)cc21; Aha′ = not defined here
# Target: T1, O-Linked N-acetylglucosaminyltransferase (OGT) (Homo sapiens, UniProt O15294)
# T1 sequence (O15294 1-1046): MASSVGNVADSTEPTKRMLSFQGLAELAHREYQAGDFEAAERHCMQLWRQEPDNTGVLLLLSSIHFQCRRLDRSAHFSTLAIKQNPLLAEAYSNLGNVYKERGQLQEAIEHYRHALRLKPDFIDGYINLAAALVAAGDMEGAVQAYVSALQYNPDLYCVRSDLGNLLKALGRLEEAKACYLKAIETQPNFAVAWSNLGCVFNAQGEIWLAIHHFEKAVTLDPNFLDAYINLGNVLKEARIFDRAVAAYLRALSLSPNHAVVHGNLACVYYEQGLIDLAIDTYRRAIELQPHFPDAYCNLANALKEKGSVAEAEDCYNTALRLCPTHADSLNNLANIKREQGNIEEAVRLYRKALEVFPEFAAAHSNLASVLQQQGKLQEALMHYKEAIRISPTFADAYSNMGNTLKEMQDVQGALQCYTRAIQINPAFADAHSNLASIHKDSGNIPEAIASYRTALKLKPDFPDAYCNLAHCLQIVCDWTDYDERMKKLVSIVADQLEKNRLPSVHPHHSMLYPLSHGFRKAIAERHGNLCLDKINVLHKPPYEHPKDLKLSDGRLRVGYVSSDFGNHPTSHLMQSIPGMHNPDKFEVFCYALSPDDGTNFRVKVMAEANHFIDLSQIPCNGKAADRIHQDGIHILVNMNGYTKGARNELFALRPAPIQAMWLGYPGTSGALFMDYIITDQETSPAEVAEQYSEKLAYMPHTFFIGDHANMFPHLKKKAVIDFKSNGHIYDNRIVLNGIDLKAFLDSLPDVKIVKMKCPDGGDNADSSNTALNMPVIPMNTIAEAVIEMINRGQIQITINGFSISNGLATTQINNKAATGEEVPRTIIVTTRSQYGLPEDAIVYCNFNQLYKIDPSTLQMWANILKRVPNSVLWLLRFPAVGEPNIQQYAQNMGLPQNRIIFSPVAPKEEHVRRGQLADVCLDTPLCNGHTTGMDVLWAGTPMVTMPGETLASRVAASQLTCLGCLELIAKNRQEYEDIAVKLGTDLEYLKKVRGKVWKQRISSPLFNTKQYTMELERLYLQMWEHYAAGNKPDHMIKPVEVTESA
# Assay: Glycosylation of CK2-derived polypeptide substrates by OGT, quantified by LC/MS
# Assay type: biochemical
# Conditions: OGT, LC/MS peak integration at 445 nm; relative to wt polypeptide 4.1
# Method: To address the first requirement, a panel of polypeptides was synthesized based on a truncated version of the CKII polypeptide [CKII peptide PGGSTPVSSNAMM (SEQ ID NO:20)]. The polypeptide was modified from the native sequence in several ways. First, a fluorescein was installed on the N-terminus during synthesis. Second, a lysine was added to the C-terminus so that a second dye or quencher could be installed by reaction with the appropriate N-hydroxysuccinimidyl ester. These modifications allowed two different FRET approaches. The first approach required the installation of a coumarin derivative on the polypeptide. The second required installation of a quencher molecule, which measured total fluorescence intensity. (See Examples 2 and 3). Finally, the residues on either side of the glycosylated serine of the truncated CK2 polypeptide were changed to phenylalanine, leucine or arginine to introduce proteolytic cleavage sites for common proteases (such as trypsin, chymotrypsin and thermolysin) that were not present in the native sequence. It was reasoned that cleavage adjacent to the glycosylation site would yield the largest difference in the rate of proteolysis between glycosylated and native polypeptides. This series of polypeptides was synthesized and screened for OGT activity using by LC/MS. Peak integration (measured at 445 nm) was used to quantitative products and reactants and mass spectrometry was used to confirm peak identity. The results are presented in Table 2 and some of the peptides (peptide 4.1, 4.4, and 4.5 top to bottom) are illustrated in FIG. 2.
# All polypeptides were purchased from Tufts University core facility (Boston, Mass.). The mass of crude product was verified and the polypeptides were labeled under the following conditions: Polypeptide was dissolved in 250 mM NaHCO3 buffer, pH 8.2 at a 5 mM concentration and the appropriate NHS-Ester (0.5 eq) was dissolved in DMSO (a volume of 1/10 of the aqueous buffer was used). The DMSO solution was quickly added to the peptide and the reaction proceeded at room temperature for 30 minutes. This was repeated 2 more times (four more times for polypeptide 4.10). The reaction was monitored by LC/MS. LCMS conditions for polypeptides 4.1-4.8—Agilent Eclipse 5 μm XD8-C8 column, 0→100% CH3CN+0.1% formic acid over 20 minutes. LCMS conditions for polypeptides 4.9-4.10—Agilent Eclipse 5 μm XD8-C8 column, 0→100% CH3CN+0.1% NH4OH over 20 minutes. Each polypeptide was purified by preparative HPLC. Conditions for polypeptides 4.1-4.8 were: —Phenomonex Luna C18 5 μm column, 0→100% CH3CN+0.1% TFA over 40 minutes. Conditions for polypeptides 4.9-4.10 were: —Phenomonex Luna C18 5 μm column, 0→100% CH3CN+0.1% NH4OH over 40 minutes. Products were confirmed by LC/MS. Preparative Glycosylation of Labeled Polypeptides: Purified FRET labeled polypeptides were added (20-50 μM final concentration) to assay buffer (50 mM Tris, 20 mM CaCl2, 0.05% Tween-20, 0.05% NP-40, pH=7.8), 200 μM UDP-GlcNAc, 0.05 units of alkaline phosphatase, and 5 μM OGT. Reactions were monitored using LCMS: conditions for polypeptides 4.1-4.8—Agilent Eclipse 5 μm XD8-C8 column, 10→60% CH3CN+0.1% formic acid over 20 minutes. LCMS conditions for polypeptides 4.9-4.10—Agilent Eclipse 5 μm XD8-C8 column, 10→60% CH3CN+0.1% NH4OH over 20 minutes, and when complete were purified using the same column and conditions. Polypeptides 4.1-4.8 were quantitated by absorption at 492 nm using an extinction coefficient of 86,000 cm^−1M^−1; polypeptide 4.9 was quantitated by absorption at 530 nm using an extinction coefficient of 26,000 cm^−1M^−1; polypeptide 4.10 was quantitated by absorption at 530 nm using an extinction coefficient of 52,000 cm^−1M^−1. Fluorescence Resonance Energy Transfer (FRET)-Peptide Approach #1
row,Relative rate of glycosylation,Molecule
1,0.15,FITC(Aha)STPFSSANMK ({FITC}-[Aha′]STPFSSANMK; reading uncertain; also: printed as FITC(Aha)STPFSSANMK) [Polypeptide 4.2]
2,0,FITC(Aha)STPRSSANMK ({FITC}-[Aha′]STPRSSANMK; reading uncertain; also: printed as FITC(Aha)STPRSSANMK) [Polypeptide 4.3]
3,0.4,FITC(Aha)STPVSFANMK ({FITC}-[Aha′]STPVSFANMK; reading uncertain; also: printed as FITC(Aha)STPVSFANMK) [Polypeptide 4.4]
4,0.7,FITC(Aha)STPVSRANMK ({FITC}-[Aha′]STPVSRANMK; reading uncertain; also: printed as FITC(Aha)STPVSRANMK) [Polypeptide 4.5]

# Same assay, conditions: more soluble variant vs earlier polypeptides
row,increase of glycosylation rate,Molecule
1,2-3 fold,FITC(Aha)STPVSRANMK(QXL ™ 520)R K(QXL ™ 520) ({FITC}-[Aha′]STPVSRANMK(QXL 520)RK(QXL 520); reading uncertain; also: printed as FITC(Aha)STPVSRANMK(QXL ™ 520)R K(QXL ™ 520)) [Polypeptide 4.10]

# Target: T2, sOGT (Homo sapiens, UniProt O15294)
# T2 sequence (O15294 1-665 isoform O15294-4): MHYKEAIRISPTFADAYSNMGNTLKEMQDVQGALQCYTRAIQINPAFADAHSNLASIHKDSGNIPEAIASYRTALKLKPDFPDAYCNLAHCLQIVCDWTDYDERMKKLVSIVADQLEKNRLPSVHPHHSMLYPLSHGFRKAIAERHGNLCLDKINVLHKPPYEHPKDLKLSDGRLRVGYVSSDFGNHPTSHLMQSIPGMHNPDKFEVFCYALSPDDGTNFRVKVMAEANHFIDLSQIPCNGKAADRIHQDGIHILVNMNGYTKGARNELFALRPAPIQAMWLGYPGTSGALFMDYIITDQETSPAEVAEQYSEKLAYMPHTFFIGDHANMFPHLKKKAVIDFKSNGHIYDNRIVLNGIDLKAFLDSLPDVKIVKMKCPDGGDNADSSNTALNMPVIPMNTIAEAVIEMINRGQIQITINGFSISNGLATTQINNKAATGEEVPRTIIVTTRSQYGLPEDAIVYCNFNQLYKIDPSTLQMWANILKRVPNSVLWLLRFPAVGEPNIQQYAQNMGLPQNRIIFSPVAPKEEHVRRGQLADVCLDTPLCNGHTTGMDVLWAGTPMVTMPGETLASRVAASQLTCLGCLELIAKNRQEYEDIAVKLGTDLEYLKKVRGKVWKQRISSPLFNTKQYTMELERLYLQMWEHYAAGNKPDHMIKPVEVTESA
# Assay: High-throughput kinetic protease-protection screen with polypeptide 4.10
# Assay type: biochemical
# Conditions: 25 μg/mL (~70 μM); hit = <70% activity in one duplicate and <80% in the second
# From the text: With the final assay conditions established, 124,226 compounds were screened in duplicate at the ICCB (Harvard University, Boston, Mass.) over two days; the highest throughput of any assay performed at the ICCB screening facility. Small molecule libraries from several commercial vendors were screened as well as known bioactive compounds, natural product extracts, and molecules made using diversity oriented synthetic approaches. Included in this set were 52,026 of the 64,416 compounds screened using a donor displacement method such as that described in PCT application PCT/US2007/008806, which was filed Apr. 11, 2007. The vast majority compounds screened were small molecules (average MW ˜350) that were optimized to have favorable physico-chemical properties such as solubility, decreased toxicity, and increased stability. All of the commercial compounds at the ICCB are plated at a stock concentration of 5 mg/mL, which, given a 20 μL reaction volume, corresponds to a 25 μg/mL inhibitor concentration in each well. The format of most compound plates at the ICCB has the last two columns of each 384-well plate empty. This allowed each assay plate to have column of negative controls (run without inhibitor) and column of positive controls (run without sOGT), which allowed a Z′ to be calculated for each plate. These values typically ranged from 0.7-0.8.
# Data workup began by calculating the average positive and negative control values independently for both duplicates of each plate. Using the linear relationship between percent glycosylation and fluorescence shown above (FIG. 7), the percent glycosylation was calculated for each well, with 0% corresponding to the average value of the positive controls and 100% corresponding to the average value of the negative controls. In actuality the range is roughly […] glycosylated polypeptide since the reaction was not allowed to proceed to completion. However, this simplification was employed to facilitate the comparison of different sets of plates. There were remarkably few compounds that reproducibly appeared to inhibit OGT, which enabled hits to be selected using a very high cutoff. Compounds with <70% activity in one duplicate and <80% activity in the second duplicate were scored as hits. Even using this lax criterion, the total unfiltered hit set only numbered 84, corresponding to a hit rate of 0.065%.
# 384-well plates (Costar #3710) were filled using a liquid handling robot with 10 μL of a mixture of 8 μM polypeptide 4.10, 40 μM UDP-GlcNAc, and buffer (50 mM Tris, 20 mM CaCl2, 0.05% Tween-20, 0.05% NP-40, pH=7.8, 500 μM tris(hydroxypropyl)phosphine). Compound libraries were then transferred to the assay plates using a 100 nL pin array and 10 μL of 500 nM sOGT in buffer (50 mM Tris, 20 mM CaCl2, 0.05% Tween-20, 0.05% NP-40, pH=7.8, 500 μM tris(hydroxypropyl)phosphine) was added using a liquid handling robot. The compounds were assayed at a concentration of 25 μg/mL or ˜70 μM, assuming an average compound MW of 350. After 2-3 hours, 20 μL of a 20 ng/mL proteinase K solution in buffer (50 mM Tris, 20 mM CaCl2, 0.05% Tween-20, 0.05% NP-40, pH=7.8) was added and allowed to react for 30-90 minutes. The plates were read using a Perkin-Elmer Envision® microplate reader with a 480 nm excitation filter and 530 nm emission filter.
row,Molecule,hit in the high throughput screen
1,O=C(/C=C/c1cccs1)Nc1scc(-c2ccccc2)c1C(=O)O [Compound 2],singleton hits
2,CSC(SC)=C(C#N)S(=O)(=O)c1ccc(Cl)cc1 [Compound 3],hits
3,N#CSc1cc(SC#N)c(N)nc1N [Compound 4],hits
4,COc1cccc(/N=C\c2c[nH]c3ccccc23)c1 [Compound 5],hits
5,Fc1ccc(NC2=NCCN2)cc1 [Compound 21],singleton hits

# Continued, values first:
row,hit in the high throughput screen,Molecule
1,singleton hits,Cc1cc(C)c2c(C(=O)O)cc(O)nc2c1 [Compound 6]
2,singleton hits,Cl.Cl.N=C(N)c1cccc(NC(=O)Nc2cccc(C(=N)N)c2)c1 [Compound 10]
3,singleton hits,Clc1cccc(C(c2nnc(-c3ccccc3)o2)N2CCN(c3ccccc3)CC2)c1 (stereo not shown) [Compound 15]
4,singleton hits,O=C1OCc2ccccc21 [Compound 16]
5,singleton hits,O=C(O)[C@H](Cc1ccccc1)N1Cc2ccccc2C1=O [Compound 17]
6,singleton hits,CCn1cc(C(=O)N2CCOCC2)c(=O)c2cc(S(=O)(=O)N(C)C)ccc21 [Compound 18]
